3 substances from patent publication US20250135016A1, “MOLECULAR LOGIC GATES FOR CONTROLLED MATERIAL DEGRADATION” (University of Washington, priority 2016, published 2025) can be followed below.

The procedure of data set [1]:
Azide functionalized glass slides were synthesized as reported in previous works. […] PEG3500-diazide (37.5 μL, 40 mM) was then added, and the resulting solution was rapidly mixed, centrifuged, and then pipetted (25 μL) onto the azide functionalized glass slide. The gels were allowed to gel to completion for 1 hr, then covered with a RainX treated glass slide, and PBS (1×) was added to swell and rinse the gel overnight at room temperature, protected from light. The following morning, two of the gels (gel 3 and 4) was exposed to 365 nm light at 20 mW/cm^2 for 10 minutes with a hatched square (100 μm) chrome photomask. Following the light treatment, gel 3 was returned to PBS (1×) and protected from light. Gels 2 and 4 were placed in a solution of Dithiothreitol (DTT, 1 mM) for 4 hours. Gels 2 and 4 were then transferred to PBS (1×) and protected from light for 30 mins. Gel 1 remained in PBS and protected from light the entire time. The resulting fluorescence of these gels were imaged using a confocal scanning microscope at 488 nm.

The nature of data set [2]: In situ oscillatory rheology of hydrogel formation with pretreated E∧P crosslinker. The class given is physicochemical. As to the method:
Reaction products were characterized using matrix-assisted laser desorption/ionization time-of-flight mass spectrometry (MALDI-TOF). […] To further investigate, the enzyme AND photo linker (E∧P) was pretreated with different combinations of enzyme and light, added to a stoichiometrically defined amount of PEG-tetraBCN, and characterized by in situ oscillatory rheology to monitor evolution of material properties.
Oscillatory rheology was performed on an Anton Paar MCR301 rheometer equipped with a cone and plate geometry (25 mm diameter, 1° cone) at 25° C. and 25 Hz with a 1% strain. A solution of PEG-tetraBCN (3 mM, Method S22) and the E∧P crosslinker (6 mM, Method S12) in MMP buffer was reacted in situ, while G′ and G″ were measured as a function of time over the course of two hours. Peptide crosslinkers were pretreated with MMP and/or light as described in Method S24 in experimental triplicate. Hydrogels with similar stiffnesses formed when the E∧P crosslinker was untreated (G′=1660±170), exposed to just light (G′=1580±130), or exposed to just enzyme (G′=1540±110).

For data set [3] the following is noted: all eight input combinations of reductant, MMP enzyme and light; endpoint supernatant fluorescence.
Data set [4] is described as follows: Multi-logic hydrogel treatment and confocal microscopy. Format: physicochemical. Conditions: three-region gel. As to the method: Hydrogels were formed sandwiched between an azide-functional glass slide and a Rain-X®-treated glass slide separated by two 0.005″ thick silicone spacers (McMaster-Carr). A precursor solution containing PEG-tetraBCN-FAM (Method S22, 2 mM) and the P crosslinker (Method S7, 4 mM) was injected between the silicone spacers (0.005 inches) and reacted for one hour. Subsequently, a precursor solution of PEG-tetraBCN-Cyanine5 (Method S22, 2 mM) and the R∨P crosslinker (Method S10, 4 mM) was injected between the FAM functionalized region and a silicone spacer and reacted for one hour. This was repeated on the other side of the FAM functionalized region with PEG-tetraBCN-AF568 (Method S22, 2 mM) and R∧P crosslinker (Method S13, 4 mM). Hydrogels were equilibrated and stored in PBS. […]
Hydrogels were imaged using fluorescent confocal microscopy. Three channels—one for each fluorophore—were simultaneously monitored. For visualization, fluorescence corresponding to AF568 (excitation 578 nm, emission 594-627 nm), FAM (excitation 515 nm, emission 520-569 nm), and Cyanine5 (excitation 646 nm, emission 663-675 nm) were false colored as red, green, and blue, respectively.

Data set [5] deals with hS5 bone marrow-derived stromal cells. Kind of data set: Hydrogel-encapsulated cell release studies. The class given is cell-based, human. The protocol:
Four human bone marrow-derived stromal cell lines [hS5], including one non-fluorescent control and three each stably transfected to express a single fluorescent protein [mCherry, green fluorescent protein (GFP), or blue fluorescent protein (BFP)], were cultured at 37° C. in Roswell Park Memorial Institute medium 1640 (RPMI-1640, Corning) supplemented with 10% FBS and 1% PS.
Hydrogels were formed sandwiched between an azide-functional glass slide and a Rain-X®-treated glass slide separated by two 0.005″ thick silicone spacers (McMaster-Carr). A precursor solution containing PEG-tetraBCN (Method S22, 2 mM), the P crosslinker (Method S7, 4 mM), and hS5-GFP^+ (40×10^6 cells mL^−1) was injected between the silicone spacers and reacted for one hour. Subsequently, a precursor solution of PEG-tetraBCN (2 mM), the R∨P crosslinker (Method S10, 4 mM), and hS5-BFP^+ (40×10^6 cells mL^−1) was injected between the hS5-GFP^+ encapsulated region and a silicone spacer. […]
Following each degradative step, cells that remained encapsulated in the intact gel were imaged using fluorescent confocal microscopy. Three channels—one for each fluorescent protein—were simultaneously monitored. For visualization, fluorescence corresponding to mCherry (excitation 587 nm, emission 626-703 nm), GFP (excitation 489 nm, emission 499-570 nm), and BFP (excitation 405 nm, emission 413-494 nm) were false colored as red, green, and blue, respectively. […]
Gels were degraded and the viability of the released cells was assessed. […]
Cells released from the gels and stained with the Live/Dead® assay were imaged on a Nikon Eclipse TE2000-U microscope using filter cubes corresponding to both live (excitation 480/40 nm filter, emission 535/50 nm filter) and dead (excitation 560/20 nm filter, emission 630/60 nm filter) staining. Viability was determined for each treatment by standard image analysis. […]

Several values for one entry are separate records, joined by “and”; a condition that tells them apart may be missing. Equal entries are not always repeated. Where two headings read alike, the source gives them in different places.

Regarding “FAM-GRCG-PL-GCGRK(CO(CH2)3N3)—NH2 [FAM-Photolabile-AND-Reducible Pendant]”, the “Gel fluorescence (FAM release)” value in data set [1] (Gel 1, control, PBS only) was “no visible loss in fluorescence”; in data set [1] (Gel 2, DTT only (1 mM, 4 hours)), “no visible loss in fluorescence”; in data set [1] (Gel 3, photomasked light only (365 nm, 20 mW/cm^2, 10 minutes)), “no visible loss in fluorescence”; in data set [1] (Gel 4, photomasked light and DTT), “release in only the exposed areas”.
With “HCC(CH2)2CO-RGK(CO(CH2)3N3)GPQGIWGQGK(oNB-N3)RK(CO(CH2)3N3)—NH2 [E∧P]”, the “Final storage modulus G′” value in data set [2] (E∧P linker pretreated with both enzyme and light, did not form a gel) was 200±30 Pa; in data set [2] (E∧P linker pretreated with enzyme (MMP) only) it was 1580±130 Pa and 1540±110 Pa; in data set [2] (E∧P linker pretreated with light only) it was 1540±110 Pa and 1580±130 Pa; in data set [2] (E∧P linker untreated, reacted with PEG-tetraBCN), 1660±170 Pa. Also, in data set [2] (all samples), the “Final loss modulus G″” value was approximately 50 Pa.
As to N3-oNB-RGGRK(N3)—NH2 [P], the Hydrogel degradation response result in data set [3] is recorded as “degrading only when the programmed cue was present”. Also, the “Response to subsequent reducing treatment” value in data set [4] (BME 0.25 mM, 45 minutes, after masked light) was “fully intact”; in data set [5] (cell-laden tri-color gel, BME 0.25 mM, 37° C., 45 minutes) it was “fully intact”. For the same substance, the “Response to masked UV light” value in data set [4] (λ=365 nm, 10 minute exposure, slitted photomask) is reported as “degradation”; in data set [5] (cell-laden tri-color gel, λ=365 nm, 10 minute exposure, photomask), “degradation”. For the same substance, in data set [5] (R gels BME 0.25 mM 45 minutes, P gels UV 10 minutes, E gels MMP-8 0.20 nM 60 minutes), the “Gel degradation for viability studies” value is given as “complete hydrogel degradation”.
